Data as given in ChEMBL document CHEMBL5038652, “Structural Rigidification of N-Aryl-pyrroles into Indoles Active against Intracellular and Drug-Resistant Mycobacteria” (ACS Med Chem Lett, 2022).
≈ marks a conversion by molar mass, not a printed value.

Experiments:
[1] = test system: Mycobacterium tuberculosis; test: Antimycobacterial activity against Mycobacterium tuberculosis H37Rv assessed as reduction in bacterial growth incubated for 7 days by resazurin dye based assay; format: functional; settings: 168 h, time 7 day
[2] = test system: Mycobacterium tuberculosis; test: Antimycobacterial activity against Mycobacterium tuberculosis H37Rv clinical isolates 1 assessed as reduction in bacterial growth incubated for 7 days by resazurin dye based assay; format: functional; settings: 168 h, time 7 day
[3] = test system: Mycobacterium tuberculosis; test: Antimycobacterial activity against Mycobacterium tuberculosis H37Rv clinical isolates 4 assessed as reduction in bacterial growth incubated for 7 days by resazurin dye based assay; format: functional; settings: 168 h, time 7 day
[4] = test system: Mycobacterium tuberculosis; test: Antimycobacterial activity against Mycobacterium tuberculosis H37Rv clinical isolates 2 assessed as reduction in bacterial growth incubated for 7 days by resazurin dye based assay; format: functional; settings: 168 h, time 7 day
[5] = test system: Mycobacterium tuberculosis; test: Antimycobacterial activity against Mycobacterium tuberculosis H37Rv clinical isolates 3 assessed as reduction in bacterial growth incubated for 7 days by resazurin dye based assay; format: functional; settings: 168 h, time 7 day
[6] = Selectivity index, ratio of IC50 for mouse J774.A1 cells to MIC for Mycobacterium tuberculosis H37Rv; format: toxicity; settings: read-out: Selectivity Index
[7] = Cytotoxicity against mouse J774.A1 cells assessed as reduction in cell viability after 24 hrs by resazurin dye based assay; format: toxicity
[8] = test system: Mycobacterium tuberculosis; test: Antimycobacterial activity against Mycobacterium tuberculosis H37Rv infected in mouse J774.A1 cells assessed as log reduction of bacterial growth at 1X MIC measured after 3 days by visual colony counting analysis; format: functional; settings: time 3 day

SMILES | MIC [1] [µg/mL] | also measured
Cn1cc(CNC2CCCCC2)c2ccc(Cl)cc21 | > 25 | –
Cc1ccc2[nH]cc(CNC3CCCCC3)c2c1 | > 25 | –
CO[C@H]1/C=C/O[C@@]2(C)Oc3c(C)c(O)c4c(O)c(c(/C=N/N5CCN(C)CC5)c(O)c4c3C2=O)NC(=O)/C(C)=C\C=C\[C@H](C)[C@H](O)[C@@H](C)[C@@H](O)[C@@H](C)[C@H](OC(C)=O)[C@@H]1C [RIFAMPIN] | – | MIC [2]: > 25 µg/mL; MIC [3]: < 0.1 µg/mL; MIC [4]: 0.65 µg/mL (≈ 0.79 µM); MIC [5]: > 25 µg/mL
Cc1cc(CNC2CCCCC2)c(C)n1-c1ccc(Cl)cc1 | 0.2 (≈ 0.631 µM) | –
c1ccc2c(CNC3CCCCCC3)c[nH]c2c1 | > 25 | –
Cc1ccc2[nH]cc(CNC3CCCCCC3)c2c1 | 24.7 (≈ 96.4 µM) | –
Clc1ccc2[nH]cc(CNC3CCCCC3)c2c1 | 16.3 (≈ 62.1 µM) | –
CC(C)=CCC/C=C(\C)Cn1cc(CNC2CCCCCC2)c2ccc(Cl)cc21 | 2.75 (≈ 6.66 µM) | –
CC(C)n1cc(CNCC2CCCCC2)c2ccc(Cl)cc21 | 6.09 (≈ 19.1 µM) | selectivity ratio [6]: 2.39; IC50 at 24 h [7]: 14.6 µg/mL (≈ 45.7 µM)
c1ccc2c(CNC3CCCCCCC3)c[nH]c2c1 | > 25 | –
Clc1ccc2c(CNCc3ccccc3)c[nH]c2c1 | 22.8 (≈ 84.3 µM) | –
Clc1ccc2c(CNC3CCCCCC3)c[nH]c2c1 | 17.1 (≈ 61.9 µM) | –
Clc1ccc2c(CNCc3ccccc3)cn(C3CCCCCCC3)c2c1 | 19.7 (≈ 51.8 µM) | –
Cn1cc(CNCC2CCCCC2)c2ccc(Cl)cc21 | 19.1 (≈ 65.6 µM) | –
Clc1ccc2c(CNC3C4CC5CC(C4)CC3C5)c[nH]c2c1 (stereo not given) | 6.07 (≈ 19.3 µM) | selectivity ratio [6]: 1.24; IC50 at 24 h [7]: 7.51 µg/mL (≈ 23.9 µM)
CC(C)n1cc(CNC2CCCCCCC2)c2ccc(Cl)cc21 | 14 (≈ 42.1 µM) | –
Cn1cc(CNCc2ccccc2)c2ccc(Cl)cc21 | > 25 | –
Clc1ccc2c(CNC3CCCCC3)c[nH]c2c1 | > 25 | –
Cc1cc(CNCC2CCCCC2)c(C)n1-c1ccc(Cl)cc1 | 0.3 (≈ 0.907 µM) | –
Clc1ccc2c(CNC3CCCCCCC3)c[nH]c2c1 | > 25 | –
c1ccc2c(CNCC3CCCCC3)c[nH]c2c1 | > 25 | –
CC(C)n1cc(CNC2CCCCCC2)c2ccc(Cl)cc21 | 16.3 (≈ 51.2 µM) | –
Clc1ccc2c(CNCC3CCCCC3)cn(C3CCCCCCC3)c2c1 | 1.56 (≈ 4.03 µM) | –
CC(C)n1cc(CNC2CCCCC2)c2ccc(Cl)cc21 | 23.9 (≈ 78.3 µM) | –
NNC(=O)c1ccncc1 [ISONIAZID] | – | MIC [2]: > 25 µg/mL; MIC [3]: 0.25 µg/mL (≈ 1.82 µM); MIC [4]: > 25 µg/mL; MIC [5]: > 25 µg/mL
Cn1cc(CNC2CCCCCCC2)c2ccc(Cl)cc21 | 23.2 (≈ 76.3 µM) | –
COc1c(N2C[C@@H]3CCCN[C@@H]3C2)c(F)cc2c(=O)c(C(=O)O)cn(C3CC3)c12 [MOXIFLOXACIN] | – | Activity [8]: 0.11 log10CFU
Cn1cc(CNC2C3CC4CC(C3)CC2C4)c2ccc(Cl)cc21 (stereo not given) | 10.9 (≈ 33.2 µM) | selectivity ratio [6]: 1.48; IC50 at 24 h [7]: 16.2 µg/mL (≈ 49.2 µM)
NCC[C@H](O)C(=O)N[C@@H]1C[C@H](N)[C@@H](O[C@H]2O[C@H](CN)[C@@H](O)[C@H](O)[C@H]2O)[C@H](O)[C@H]1O[C@H]1O[C@H](CO)[C@@H](O)[C@H](N)[C@H]1O [AMIKACIN] | – | MIC [2]: 0.32 µg/mL (≈ 0.546 µM); MIC [3]: 0.14 µg/mL (≈ 0.239 µM); MIC [4]: 23.1 µg/mL (≈ 39.5 µM); MIC [5]: > 25 µg/mL
Clc1ccc2c(CNCC3CCCCC3)c[nH]c2c1 | 24.2 (≈ 87.4 µM) | –
